According to patent US20100256145A1, “USE OF KCNQ POTASSIUM CHANNEL OPENERS FOR REDUCING SYMPTOMS OF OR TREATING DISORDERS OR CONDITIONS WHEREIN THE DOPAMINERGIC SYSTEM IS DISRUPTED” (H. LUNDBECK A/S, priority 2007, published 2010):
Marks after values point to notes of the source that are not given here.

What was measured:
[1] = system: dopaminergic neurons in the ventral tegmental area; experiment: Spontaneous DA cell firing in the VTA of anaesthetised rats (extracellular single-cell recordings); settings: mean ± SEM
Experimental: Subjects. Male Wistar rats (Harlan, The Netherlands) weighing 270-340 g are used. The animals are housed under a 12-hr light/dark cycle under controlled conditions for regular in-door temperature (21±2° C.) and humidity (55±5%) with food and tap water available ad libitum.
Administration of compound. […] These i.v. doses match the s.c. dose range of 0-10 mg/kg.
Statistical analysis. Drug effects are assessed by statistical comparison of the mean firing rate calculated from the 2-3 min period immediately before the first drug administration (baseline) to the mean firing rate calculated from at least 60 s at the maximal drug effect. Data are analysed statistically by a one-way analysis of variance (ANOVA) followed by Student-Newman-Keuls post hoc test. A p-value less than 0.05 is considered significant.

[2] = system: basal locomotor activity; experiment: Basal locomotor activity inhibition (motility inhibition) in the rat; type: in vivo; settings: basal locomotor activity without stimulant (sedative properties), std. dev. in brackets
Experimental: Subjects. Male Wistar rats (Taconic, Denmark) weighing 170-240 g are used. The animals are housed under a 12-hr light/dark cycle under controlled conditions for regular in-door temperature (21±2° C.) and humidity (55±5%) with food and tap water available ad libitum.
Experimental procedure. The experiment is made in normal light conditions in an undisturbed room. […] Immediately after injection of the stimulant, the rats are placed individually in the test cages that are placed in a U-frame, equipped with 4 infrared light sources and photocells. The light beams cross the cage 4 cm above the cage floor. Recording of a motility count requires interruption of adjacent light beams, thus avoiding counts induced by stationary movements of the rat. Motility (counts) is recorded for a period of 2 hours. […] The 100 percent effect of stimulant drug is accordingly calculated to be total motility counts minus baseline. […] The percent responses are converted to percent inhibition from which ED50 values are calculated by means of log-probit analyses. In a parallel set of data, the potential sedative properties (exemplified by basal locomotor activity inhibition) of the test compounds are evaluated using essentially the same procedure with the exception of not administering the stimulant drug at the initiation of locomotor assessment.

[3] = system: conditioned avoidance response; experiment: Conditioned avoidance response in rats; type: in vivo, rat
Experimental: Subjects. Male Wistar rats (Taconic, Denmark) weighing 150 g at the beginning of the study are used. The rats are housed in pairs and maintained on a 12 h light/dark cycle (lights on 06:00). The animals are fed once daily (approx. 6 pellets/rat) in order to keep the rats at 80% of their free-feeding weight. Water is available ad libitum. Temperature (21±1° C.) and relative humidity (55±5%) are automatically controlled.
Experimental procedure. Conditioned avoidance testing is conducted using four automated shuttle-boxes (ENV-010M, MED-Associates) each placed in a sound-attenuated chamber. Each box is divided into two compartments by a partition with an opening. The position of the animal and crossings from one compartment to the other are detected by two photocells placed on either side of the dividing wall. Upon presentation of the conditioned stimuli (CS), tone and light, the animals have 10s to cross to the other compartment of the shuttle-box in order to turn the CS off (end the trial) and avoid the appearance of the unconditioned stimulus (UCS). If the rat remains in the same compartment for more than 10s, the UCS is presented as 0.5 mA scrambled foot-shocks until escape is performed or 10s in maximal duration. The following behavioural variables are evaluated: avoidance (response to CS within 10s); escape (reponse to CS+UCS); escape failures (failure to respond); intertrial crosses and locomotor activity. The rats are habituated to the shuttle-box 3 min before each test session. During training each test session consists of 30 trials with intertrial intervals varying randomly between 20s and 30s. Training is carried out until the rats display an avoidance of 80% or more, on 3 consecutive days. A test is preceded by a pre-test the day before giving rise to a baseline value for each animal, thus the animals serve as their own control. Seven to eight rats are used at each dose level. A parallel control group receiving the vehicle of the test compound is also included.
Administration of compound. […] All compounds are dissolved in a vehicle of 10% 2-hydroxy-propyl-beta-cyclodextrin (isotonic with glucose, pH 5-7).
Statistical analyses. The effects of compounds on avoidance and escape failure behaviours are statistically evaluated by means of two-way repeated measures ANOVA followed by post hoc comparisons (Student-Newman-Keuls Method) when appropriate. P-levels <0.05 are considered statistically significant.

[4] = system: social behaviours in the rat Tetradic Encounter test; experiment: Rat Tetradic Encounter test; settings: for % of time Agonistic behaviour: sum of defensive and aggressive behaviour
Experimental: Subjects. 5 week old male Wistar rats (Harlan, Germany) were used. The animals were housed in groups of four animals per cage and kept under a 12 h/12 h light dark rhythm (start of the dark phase at 2:00 p.m., CET), at 20° C. room temperature and 60% humidity. During the whole study, standard diet and tap water was provided ad libitum.
Experimental procedure. […] Therefore, half of the cage is the home territory of each animal. At test time, the wall is removed from the cage so that the animals can interact with each other for 15 minutes. Both animals are from the same test group. The cage is illuminated by dim red light. The test starts 1 hour after beginning of the dark phase. All animals are marked individually by means of black symbols on their back. Behaviour is registered by video. Each animal is tested once.
Analyses. In both the TE test and the MRI test, the portion of time (%) spent in non-social, friendly, defensive, aggressive or agonistic (sum of defensive and aggressive behaviour) behaviour was compared across the experimental groups against the relevant control group by means of Analysis of Variance (ANOVA) (one-factor).

[5] = system: choice of the large-but-delayed reward (impulsivity); experiment: Rat T-maze procedure: large-but-delayed vs small-but-immediate reward; type: in vivo; settings: juvenile Wistar rats
Experimental: Subjects. male Wistar AF rats (28-41 days old) (Centre d′Elevage René Janvier, France) were used. […] During the whole study, tap water was provided ad libitum. Food was restricted to 5-10 g/day/animal in order to maintain animals at 65-75% of their free feeding weight
Experimental procedure. The experiments were performed in two identical T-maze apparatus constructed from opaque grey plastic tubing and consisting of a starting runway (30 cm long) and two arms (35 cm long) each leading to a rectangular black plastic goal box (18 cm large, 30 cm wide, 10 cm high). Removable grey plastic guillotine doors could be inserted into the vertical clefts, situated at the entry of the starting runway and at each end of the arms. One of the goal-boxes (left or right, depending on the rats) was constantly provided with a large reward, the other with a small reward. Large and small rewards consisted, respectively, of 5 and 1 pellets (20 mg, Technical & Scientific Equipment GmbH, Germany). The pellets were placed in a translucent food-cup before each trial.
First phase: habituation. Animals were first subjected to two 5-min sessions of habituation. The rat was gently introduced in the starting runway, which then was closed with a guillotine door inserted in the cleft (referred to as c0 in FIG. 1). The animal was allowed to freely explore the apparatus and to eat food rewards placed in the food cups.
Second phase: pretraining. After a door was placed in the cleft c2 near each goal-box, the rat was introduced in the starting runway. When it entered one of the two arms, a door was inserted behind it in the cleft c1 near the choice area and the door placed in cleft c2 was removed. As soon as the animal entered the goal-box, the door was placed again in the cleft c2. The rat was removed from the goal-box as soon as the pellets were eaten (usually within less than 1 min). The animal was then returned to its home cage for an intertrial interval of 2 to 3 min. Each rat was submitted one to five times/day to five trials sessions in this procedure. Training was initiated when the rat selected the arm giving access to the large reward in more than 14 out of 15 trials.
Third phase: training. Rats underwent one to five times/day five trials training sessions during which a delay was introduced before access to the large reward. After a door was placed in the cleft c2 near each goal-box, the rat was introduced in the starting runway. When it entered one of the two arms, a second door was inserted behind it in the cleft c1 near the choice area, so that rat selecting the arm leading to the large reward could be detained in this arm for a period (referred to as the waiting delay) before having access to the reinforcement. Otherwise, if the animal selected the arm leading to the small reward, the door placed in the cleft c2 was immediately opened, allowing the animal to enter the goal-box. At the beginning of training, the waiting delay was 30 sec. Then, if the percentage of choices of the large and delayed reward remained high (i.e. ≧40%) for more than six sessions, it was increased to 45 sec, and if necessary to 60 sec, 90 sec and finally 120 sec. Drug testing began when the animal selected the large and delayed reward in two trials out of five (or less) in two consecutive sessions and in one trial out of five (or less) in the following session.
Drug testing was conducted over six consecutive test-sessions of five trials each, during which the access to the large reward was preceded by the waiting delay. Test sessions were: Two control pre-drug sessions: control pre-drug session 1 and control pre-drug session 2; Two drug sessions: drug session 1 and drug session 2; Two control post-drug sessions: control post-drug session 1 and control post-drug session 2.

[6] = Rattus norvegicus, sc, read-out: % inhibition of avoidance (Std. dev.) Relative to baseline
[7] = 2 mg/kg s.c. 30 min before test
[8] = 10 mg/kg s.c. 30 min before test

Q: With `CCOC(=O)Nc1ccc(NCc2ccc(F)cc2)cc1N` [Compound 1, reference compound] as the compound, how does the “Spontaneous DA cell firing rate in the VTA” value ([1]; cumulated dose 0.3 mg/kg i.v.) read?
A: The value was 95.4 ± 5.0 (4) percentage of baseline firing rate.

Q: What about the “Spontaneous DA cell firing rate in the VTA” value ([1]; cumulated dose 1.0 mg/kg i.v.) of the same compound?
A: The value was 90.5 ± 4.6 (5) percentage of baseline firing rate.

Q: What about the “Spontaneous DA cell firing rate in the VTA” value ([1]; cumulated dose 2.0 mg/kg i.v.) of the same compound?
A: Its value is 81.1 ± 5.1 (5) percentage of baseline firing rate.

Q: What about the “Spontaneous DA cell firing rate in the VTA” value ([1]; cumulated dose 4.0 mg/kg i.v.) of the same compound?
A: The value was 67.1 ± 3.7 (4) percentage of baseline firing rate.

Q: And the “Spontaneous DA cell firing rate in the VTA” value ([1]; cumulated dose 6.0 mg/kg i.v.)?
A: Its value is 60.6 ± 0.7 (2) percentage of baseline firing rate.

Q: What about the “Motility inhibition ED50 (mg/kg) ± std. dev.” value [2] of the same compound?
A: Its value is over 8.1 mg/kg.

Q: What about the inhibition at 5 mg/kg [3, 6] of the same compound?
A: Its inhibition at 5 mg/kg is 1%.

Q: And the inhibition at 10 mg/kg [3, 6]?
A: Its inhibition at 10 mg/kg is 59%.

Q: What about the “Escape failures (effect on motor performance)” value ([3]; rats, all tested doses (2.5-10 mg/kg s.c.), data not shown) of the same compound?
A: Its value is “None of the tested doses cause any incidences of escape failures”.

Q: And the “% of time Aggressive behaviour” value [4, 7]?
A: Its value is 5.2 % of time.

Q: And the “% of time Defensive behaviour” value [4, 7]?
A: The value was 7.2 % of time.

Q: And the “% of time Friendly behaviour” value [4, 7]?
A: The value was 21.9 % of time.

Q: What about the “% of time Non-social behaviour” value [4, 7] of the same compound?
A: Its value is 65.7 % of time.

Q: And the “% of time Agonistic behaviour” value [4, 7]?
A: The value was 12.4 % of time.

Q: And the “% of time Aggressive behaviour” value [4, 8]?
A: Its value is 2.4 % of time.

Q: What about the “% of time Defensive behaviour” value [4, 8] of the same compound?
A: Its value is 3.7* % of time.

Q: What about the “% of time Friendly behaviour” value [4, 8] of the same compound?
A: Its value is 24.7 % of time.

Q: What about the “% of time Non-social behaviour” value [4, 8] of the same compound?
A: Its value is 69.2 % of time.

Q: What about the “% of time Agonistic behaviour” value [4, 8] of the same compound?
A: Its value is 6.1* % of time.

Q: What about the “% Choice of the large but delayed reward on Drug sessions” value ([5]; 5 mg/kg s.c. 30 min before the test) of the same compound?
A: The value was 26.7 ± 3.3 %.

Q: What about the “% Choice of the large but delayed reward on Control sessions” value ([5]; placebo administered before control (pre-drug and post-drug) sessions of the same group) of the same compound?
A: Its value is 10.8 ± 2.0%.
